# Test results from US10131664B2 (Celgene Quanticel Research, Inc., priority 2013, dated 2018).
# pIC50: −log10 of the molar value.
# Assays:
# full-length human LSD1 = full-length human LSD1 (Homo sapiens (Human), UniProt O60341); assay: In vitro enzyme inhibition assay LSD-1 (TR-FRET); format: biochemical; details: TR-FRET, 0.1 nM LSD1, 50 nM H3K4me1-biotin peptide, 2 μM FAD, pH7.3; read-out: LSD1 IC50
# Procedure: This assay determines the ability of a test compound to inhibit LSD1 demethylase activity.
# The enzymatic assay of LSD1 activity is based on Time Resolved-Fluorescence Resonance Energy Transfer (TR-FRET) detection.
# The ability of the compounds disclosed herein to inhibit LSD1 activity was quantified and the respective IC50 value was determined. Table 5 provides the IC50 values of various substituted heterocyclic compounds disclosed herein.
# THP-1 (AML) cells = assay: LSD1 CD11b cellular assay (flow cytometry); format: cell-based; details: Homo sapiens, 96 h; CD11b expression in THP-1 (AML) cells, flow cytometry, 4 days incubation; read-out: Cellular IC50
# Summary of the method: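 THP-1 AML cells treated with serially diluted compound (0.2% DMSO final) for 4 days at 37 °C, 5% CO2. CD11b expression measured by flow cytometry with DAPI staining; IC50 derived from percent CD11b-positive cells versus inhibitor concentration.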
SMILES,pIC50 (full-length human LSD1),pIC50 (THP-1 (AML) cells)
"Cn1ccc2nc(-c3cnc(N4CCC(N)CC4)nc3-c3ccc(C#N)cc3)ccc21 [Example 77, 4-[2-(4-aminopiperidin-1-yl)-5-(1-methylpyrrolo[3,2-b]pyridin-5-yl)pyrimidin-4-yl]benzonitrile]",> 7.00,6.00 to 7.00
"N#Cc1ccc(-c2nc(NC[C@H]3CCNC3)ncc2C#CC2CC2)cc1 [Example 26, 4-[5-(2-cyclopropylethynyl)-2-{[(3S)-pyrrolidin-3-ylmethyl]amino}pyrimidin-4-yl]benzonitrile]",> 7.00,6.00 to 7.00
"Cc1ccc(-c2cnc(N[C@@H]3C[C@H]4CNC[C@H]4C3)nc2-c2ccc(C#N)cc2)cc1 [Example 27, 4-(2-{[(3aR,5S,6aS)-octahydrocyclopenta[c]pyrrol-5-yl]amino}-5-(4-methylphenyl)pyrimidin-4-yl)benzonitrile]",6.00 to 7.00,6.00 to 7.00
"Cc1ccc(-c2cnc(N3CCC4CNCC4C3)nc2-c2ccc(C#N)cc2)cc1 (stereo not drawn) [Example 22, 4-[5-(4-methylphenyl)-2-{octahydro-1H-pyrrolo[3,4-c]pyridin-5-yl}pyrimidin-4-yl]benzonitrile]",> 7.00,> 7.00
"N#Cc1ccc(-n2nc(C(=O)N3CCC[C@@H](N)C3)cc2OCc2cccnc2)cc1 [Example 57, 4-{3-[((3R)-3-Aminopiperidyl)carbonyl]-5-(3-pyridylmethoxy)pyrazolyl}benzenecarbonitrile]",> 7.00,6.00 to 7.00
"Cc1ccc(-c2cc(NCC3CCNC3)nn2-c2ccc(C#N)cc2)cc1 (stereo not drawn) [Example 43, 4-[5-(4-methylphenyl)-3-(pyrrolidin-3-ylmethylamino)pyrazol-1-yl]benzonitrile]",> 7.00,> 7.00
"N#Cc1ccc(-c2nc(N3CCC(N)CC3)ncc2C#CC2(O)CCCC2)cc1 [Example 70, 4-{2-(4-aminopiperidin-1-yl)-5-[2-(1-hydroxycyclopentyl)ethynyl]pyrimidin-4-yl]benzonitrile]",> 7.00,> 7.00
"Cn1nnc2cc(-c3cnc(N4CCC(N)CC4)nc3-c3ccc(C#N)cc3)ccc21 [Example 72, 4-[2-(4-aminopiperidin-1-yl)-5-(1-methylbenzotriazol-5-yl)pyrimidin-4-yl]benzonitrile]",> 7.00,> 7.00
"N#Cc1ccc(-c2nc(N3CCC4NCCC4C3)ncc2-c2cnn(CC(F)(F)F)c2)cc1 (stereo not drawn) [Example 63, 4-[2-{1,2,3,3a,4,6,7,7a-octahydropyrrolo[3,2-c]pyridin-5-yl)-5-[1-(2,2,2-trifluoroethyl)pyrazol-4-yl]pyrimidin-4-yl]benzonitrile]",> 7.00,6.00 to 7.00
"N#Cc1ccc(-c2nc(N3CCC(N)CC3)ncc2-c2cnn(CC(F)(F)F)c2)cc1 [Example 61, 4-[2-(4-aminopiperidin-1-yl)-5-[1-(2,2,2-trifluoroethyl)pyrazol-4-yl]pyrimidin-4-yl]benzonitrile]",> 7.00,> 7.00
"Cn1ncc2cc(-c3cnc(N4CCC(N)CC4)nc3-c3ccc(C#N)cc3)ncc21 [Example 69, 4-[2-(4-aminopiperidin-1-yl)-5-(1-methylpyrazolo[3,4-c]pyridin-5-yl)pyrimidin-4-yl]benzonitrile]",> 7.00,6.00 to 7.00
"Cc1ccc(-c2cnc(N3CC[C@@H]4CNC[C@@H]4CC3)nc2-c2ccc(C#N)cc2)cc1 [Example 23, 4-{2-[(3aR,8aS)-decahydropyrro[3,4-d]azepin-6-yl]-5-(4-methylphenyl)pyrimidin-4-yl}benzonitrile]",> 7.00,> 7.00

# Second part, the molecule after the results:
pIC50 (full-length human LSD1),pIC50 (THP-1 (AML) cells),SMILES
> 7.00,> 7.00,"COc1nc(N2CCCC(N)CC2)nc(-c2ccc(C#N)c(F)c2)c1-c1ccc2nn(C)cc2c1 (stereo not drawn) [Example 149, 4-[2-(4-aminoazepan-1-yl)-6-methoxy-5-(2-methyl-2H-indazol-5-yl)pyrimidin-4-yl]-2-fluorobenzonitrile]"
> 7.00,> 7.00,"COc1ccc(-c2cnc(N3CCC(N)CC3)nc2-c2ccc(C#N)cc2)cn1 [Example 123, 4-[2-(4-aminopiperidin-1-yl)-5-(6-methoxypyridin-3-yl)pyrimidin-4-yl]benzonitrile]"
> 7.00,6.00 to 7.00,"Cn1nccc1C#Cc1cnc(N2CCC(N)CC2)nc1-c1ccc(C#N)c(F)c1 [Example 106, 4-[2-(4-aminopiperidin-1-yl)-5-[2-(2-methylpyrazol-3-yl)ethynyl]pyrimidin-4-yl]-2-fluorobenzonitrile]"
> 7.00,> 7.00,"COc1nc(N2CCC(N)CC2)nc(-c2ccc(C#N)cc2)c1-c1cnc2c(c1)nnn2C [Example 158, 4-[2-(4-aminopiperidin-1-yl)-6-methoxy-5-{3-methyl-3H-[1,2,3]triazolo[4,5-b]pyridin-6-yl}pyrimidin-4-yl]benzonitrile]"
> 7.00,> 7.00,"CNc1nc(N2CCC(N)CC2)nc(-c2ccc(C#N)c(F)c2)c1-c1cnc2c(c1)nnn2C [Example 171, 4-[2-(4-aminopiperidin-1-yl)-5-{3-methyl-3H-[1,2,3]triazolo[4,5-b]pyridin-6-yl}-6-(methylamino)pyrimidin-4-yl]-2-fluorobenzonitrile]"
> 7.00,> 7.00,"Cn1cnc2cc(-c3cnc(N4CCC(N)CC4)nc3-c3ccc(C#N)c(F)c3)cnc21 [Example 136, 4-[2-(4-aminopiperidin-1-yl)-5-(3-methylimidazo[4,5-b]pyridin-6-yl)pyrimidin-4-yl]-2-fluorobenzonitrile]"
> 7.00,> 7.00,"COc1nc(N2CCC(N)CC2)nc(-c2ccc(C#N)c(F)c2)c1-c1cnc2c(c1)nnn2C [Example 157, 4-[2-(4-aminopiperidin-1-yl)-6-methoxy-5-{3-methyl-3H-[1,2,3]triazolo[4,5-b]pyridin-6-yl}pyrimidin-4-yl]-2-fluorobenzonitrile]"
> 7.00,6.00 to 7.00,"N#Cc1ccc(-c2nc(N3CCC(N)C(O)C3)ncc2-c2cnn(CC(F)(F)F)c2)cc1F (stereo not drawn) [Example 103, 4-[2-(4-amino-3-hydroxypiperidin-1-yl)-5-[1-(2,2,2-trifluoroethyl)pyrazol-4-yl]pyrimidin-4-yl]-2-fluorobenzonitrile]"
> 7.00,> 7.00,"Cn1cnc2cc(-c3cnc(N4CCC(N)CC4)nc3-c3ccc(C#N)cc3)c(F)cc21 [Example 125, 4-[2-(4-aminopiperidin-1-yl)-5-(6-fluoro-1-methylbenzimidazol-5-yl)pyrimidin-4-yl]benzonitrile]"
> 7.00,> 7.00,"Cn1ncc2cc(-c3cnc(N4CCC(N)CC4)nc3-c3ccc(C#N)c(F)c3)cnc21 [Example 145, 4-[2-(4-aminopiperidin-1-yl)-5-(1-methylpyrazolo[3,4-b]pyridin-5-yl)pyrimidin-4-yl]-2-fluorobenzonitrile]"
> 7.00,> 7.00,"CNc1nc(N2CCC(N)CC2)nc(-c2ccc(C#N)c(F)c2)c1-c1ccc2c(c1)nnn2C [Example 165, 4-[2-(4-aminopiperidin-1-yl)-5-(1-methyl-1H-1,2,3-benzotriazol-5-yl)-6-(methylamino)pyrimidin-4-yl]-2-fluorobenzonitrile]"
> 7.00,> 7.00,"CNc1nc(N2CCC(N)CC2)nc(-c2ccc(C#N)c(F)c2)c1-c1cnc2c(cnn2C)c1 [Example 175, 4-[2-(4-aminopiperidin-1-yl)-5-{1-methyl-1H-pyrazolo[3,4-b]pyridin-5-yl}-6-(methylamino)pyrimidin-4-yl]-2-fluorobenzonitrile]"
